Experiment [1] relates to tissue-specific form of alkaline phosphatase. The settings on record: Millan, Clinica Chimica Acta. 209:123-129, 1992; cited from earlier work.
The target of experiment [2] is T1, Alkaline phosphatase (Mesocricetus auratus, UniProt A0A1U7QBN2).
T1 construct: the supernatant was used as the enzyme source; from tissue; host or cells: whole hamster flank organs, homogenized, 12,000×g supernatant
T1 sequence (A0A1U7QBN2 18-524): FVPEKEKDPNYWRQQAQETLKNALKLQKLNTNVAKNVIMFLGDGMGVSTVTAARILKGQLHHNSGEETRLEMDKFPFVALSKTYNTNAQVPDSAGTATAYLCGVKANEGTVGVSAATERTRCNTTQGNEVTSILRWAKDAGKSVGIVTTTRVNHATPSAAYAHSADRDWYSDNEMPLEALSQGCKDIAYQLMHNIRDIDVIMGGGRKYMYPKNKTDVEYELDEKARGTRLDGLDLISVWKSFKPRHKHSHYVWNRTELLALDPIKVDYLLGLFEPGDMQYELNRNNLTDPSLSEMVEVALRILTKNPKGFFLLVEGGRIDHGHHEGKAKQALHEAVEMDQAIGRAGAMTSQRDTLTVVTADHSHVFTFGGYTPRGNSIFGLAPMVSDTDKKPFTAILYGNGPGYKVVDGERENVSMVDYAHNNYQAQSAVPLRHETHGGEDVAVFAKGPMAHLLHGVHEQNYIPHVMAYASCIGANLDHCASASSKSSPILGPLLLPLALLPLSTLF
Briefly: Alkaline phosphatase activity, hamster flank organ hair follicle enzyme. It is filed as biochemical. The procedure: (§1) Alkaline phosphatase activity was determined using a kit supplied by Sigma Chemical Co. Whole flank organs from hamsters or isolated human hair follicles were homogenized in a Tris-sucrose buffer, pH 7.5, using a polytron. The homogenate was centrifuged at 12,000×g for 5 minutes in a microcentrifuge, and the supernatant was used as the enzyme source. The supernatant (0.1 mL) was added to a reaction mixture containing 0.5 mL substrate (p-nitophenol phosphate) and 0.5 mL reaction buffer (both reagents supplied in the kit). Inhibitors were added in a volume of 0.1 mL. Water was used as a negative control. Reaction mixtures were incubated for 30 minutes at 37° C. The reaction mixtures were then transferred to a tube containing 10 mL 0.05N NaOH. Absorbance was measured at a wavelength of 410 nm. Concentrated hydrochloric acid (0.2 mL) was added to each tube and tubes were mixed. Again, absorbance was measured at 410 nm. Absorbance values from the second measurement were substrated from the first measurement to give normalized alkaline phosphatase activity.

In a further experiment the test system is Human hair follicles. Briefly: Human hair follicle growth assay. Type of experiment: cell-based. The settings on record: for % Inhibition / reduction in growth rate: Day 6-Day 0, vs control. The procedure:
Human hair follicles in growth phase (anagen) were isolated from face-lift tissue under a dissecting scope using a scalpel and watchmakers forceps. The skin was sliced into thin strips exposing 2-3 rows of follicles that could readily be dissected. Follicles were placed into 0.5 mL Williams E medium (Life Technologies, Gaithersburg, Md.) supplemented with […] L-glutamine, 10 μg/mL insulin, 10 ng/mL hydrocortisone, 100 units penicillin, 0.1 mg/mL streptomycin and 0.25 μg/mL amphotericin B. The follicles were incubated in 24 well plates (1 follicle/well) at 37° C. in an atmosphere of 5% CO2 and 95% air. Hair follicles were videorecorded in the 24-well plates under the dissecting scope under a power of 20×. Typically, initial recordings were made on day 0 (day follicles were placed in culture) or day 1, and again on days 7 or 8. Hair follicle lengths were assessed using an image analysis software system (Computer Eyes and NIH Image).

The test system of experiment [3] is tissue nonspecific form of alkaline phosphatase. The settings on record: in several species; cited from earlier work.
The target of experiment [4] is T2, Alkaline phosphatase (Homo sapiens, UniProt P05186).
T2 construct: the supernatant was used as the enzyme source; from tissue; host or cells: isolated human hair follicles, homogenized, 12,000×g supernatant
T2 sequence (P05186 18-502 limits assumed): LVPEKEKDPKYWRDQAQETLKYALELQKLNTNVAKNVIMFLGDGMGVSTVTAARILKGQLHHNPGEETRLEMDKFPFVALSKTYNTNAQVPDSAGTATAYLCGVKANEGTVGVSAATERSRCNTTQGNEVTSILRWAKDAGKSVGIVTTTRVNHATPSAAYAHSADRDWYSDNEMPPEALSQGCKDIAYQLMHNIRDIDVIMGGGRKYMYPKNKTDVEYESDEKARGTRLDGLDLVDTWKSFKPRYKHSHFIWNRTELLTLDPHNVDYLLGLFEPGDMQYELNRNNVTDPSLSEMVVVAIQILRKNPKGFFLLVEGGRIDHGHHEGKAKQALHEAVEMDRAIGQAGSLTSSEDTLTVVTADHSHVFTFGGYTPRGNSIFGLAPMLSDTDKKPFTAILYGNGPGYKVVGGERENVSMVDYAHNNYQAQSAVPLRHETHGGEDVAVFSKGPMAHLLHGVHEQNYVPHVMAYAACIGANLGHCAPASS
Briefly: Alkaline phosphatase activity, human hair follicle enzyme. Type of experiment: biochemical. The procedure:
as §1

The structures appear in SMILES notation.

As usually defined, the IC50 is the concentration that inhibits the measured activity by half. A high value points to weaker potency. As usually defined, the inhibition is the change of the read-out against control, counted positive when it falls.

`N[C@@H](Cc1ccccc1)C(=O)O` [phenylalanine]: the “inhibition of tissue-specific alkaline phosphatase” value in experiment [1] is “inhibit the tissue-specific form of alkaline phosphatase in a stereoselective fashion in that only the L-form is active”.
`c1ccc(C2CN3CCSC3=N2)cc1` (racemic) [Tetramisole, [±]-2,3,5,6-tetrahydro-6-phenyl-imidazo [2,1-b] thiazole] registered a half-maximal inhibitory concentration (IC50) at Alkaline phosphatase [2] (hamster hair follicle enzyme) of 125 µM. Also, the “Hair Follicle Length Increase (mm) (Day 6-Day 0)” value in the experiment with Human hair follicles (0.5 mM, control 1.08 ± .25 mm) is on record as 0.63 ± .06 mm. Moreover, the inhibition at 500 µM in the experiment with Human hair follicles (Homo sapiens, read-out: % Inhibition of hair growth) worked out at 42 ± 5%.
For the compound `N=C(N)NCCCC[C@H](N)C(=O)O` [L-homeoarginine], the “inhibition of tissue nonspecific alkaline phosphatase” value in experiment [3] is “inhibitor of the tissue nonspecific form of alkaline phosphatase in several species”.
For `CC(C)C[C@H](N)C(=O)O` [leucine], the “inhibition of tissue-specific alkaline phosphatase” value in experiment [1] is listed as “inhibit the tissue-specific form of alkaline phosphatase in a stereoselective fashion in that only the L-form is active”.
As for `[Na+].[Na+].[Na+].[O]=[V]([O-])([O-])[O-]` [Sodium Orthovanadate, sodium orthovanadate], the IC50 against Alkaline phosphatase [2] (Flank Organ, Table 3, 30 minutes at 37° C.) came to 40 µM; at Alkaline phosphatase [2] (hamster hair follicle enzyme), 40 µM; against Alkaline phosphatase [4] (Human Hair Follicle, Table 3, 30 minutes at 37° C.), 75 µM; at Alkaline phosphatase [4] (human hair follicle enzyme), 75 µM. Besides, the “% Inhibition / reduction in growth rate” value with Human hair follicles (0.1 mM) is listed as 58 ± 8%; with Human hair follicles (0.1 mM, listed as sodium orthovanadate) it was 58±8%. In addition, the “Hair Follicle Length Increase (mm) (Day 6-Day 0)” value in the experiment on Human hair follicles (0.1 mM, control 0.77 ± .09 mm) is reported as 0.32 ± .06 mm.
Turning to `N[C@@H](Cc1c[nH]c2ccccc12)C(=O)O` [tryptophan], the “inhibition of tissue-specific alkaline phosphatase” value in experiment [1] was “inhibit the tissue-specific form of alkaline phosphatase in a stereoselective fashion in that only the L-form is active”.
